Experimental data: PubChem BioAssay AID2060498 (Molecular Pharmacology Branch, DTP, NCI, 2025)
Values joined by “and” are separate entries in the source; they are usually repeats but may differ in a detail not shown here. Equal values may be shown once.

Test system: 171881-019-R-J1-PDC tumor spheroids, viability
Assay: Anticancer human tumor 171881-019-R-J1-PDC patient-derived invasive breast carcinoma cell line growth inhibition [GQUAD]
Details: spheroids with HUVEC and MSC; for viability, T/C: stronger effect = lower value; for IC50: curve of compound
Description: DNA G-quadruplex Stabilizer Agents in Combinations in Complex Spheroids
A high-throughput screen of multi-cell type tumor spheroids was designed to identify active combinations of DNA G-quadruplex stabilizer agents and targeted small molecules. Complex spheroids include a stromal component modeled by human endothelial cells (HUVEC) and fibroblasts modeled by human mesenchymal stem cells (MSCs). The concentration ranges selected for each drug and investigational agent were based upon clinically achievable concentrations if the clinical Cmax of the agent was known.
Compounds. The drugs and investigational agents: pidnarulex (CX-5461; NSC782164), APTO-253 (NSC789042), BRACO-19 (NSC847499), peposertib (NSC802822), ceralasertib (NSC780249), elimusertib (NSC800525), camonsertib (NSC841442), AZD-1390 (NSC803789), olaparib (NSC753686), talazoparib (NSC767125), ART-558 (NSC835418), sotorasib (NSC818433), MRTX-1133 (NSC836407), SN-38 (NSC673596), topotecan (NSC609699), etoposide (NSC141540), doxorubicin (NSC123127), gemcitabine (NSC613327), 5-fluorouracil (NSC19893), paclitaxel (NSC125973), vemurafenib (NSC761431), panobinostat (NSC761190), R-306465 (JNJ-16241199; NSC773264), adavosertib (NSC754352), TP-3654 (NSC805149), carboplatin (NSC241240), KSQ-4279 (NSC840948), and staurosporine (NSC755774) were obtained from the National Cancer Institute (NCI) Developmental Therapeutics Program Chemical Repository (34). The FDA-approved anticancer drug set is available from the NCI Developmental Therapeutics Program. […] The stock solutions were prepared in dimethyl sulfoxide (DMSO, Sigma-Aldrich, St. Louis, MO, cat. D2650) at 800-fold the tested concentration and stored at -70 degrees C prior to their use. All drugs and investigational agents were tested over a range starting from a high concentration at or near the clinical Cmax and decreasing in half-log increments. If the clinical Cmax for an agent had not been determined, the highest concentration tested was 10 microM.
2.3 Cell Culture. All cells were maintained in an incubator at 37 degrees C and 5% CO2 with 95% humidity. The PDC lines were cultured according to standard operating procedures established by the NCI PDMR. All PDCs were thawed and cultured in Matrigel-coated flasks prepared with a working solution of 1X Ham's F-12 nutrient mix, without supplementation (Invitrogen, cat. 11765054), 100 U/mL penicillin-streptomycin (Invitrogen, cat. 15140122), and 2.5% Matrigel (Corning Inc., cat. 354248) for the first three passages. The 857933-349-R-J2-PDC line was cultured in 6C/Colon 1B media, which includes advanced DMEM/F-12 (Thermo Fisher Scientific, cat. 12634028), 10 mM HEPES (Thermo Fisher Scientific, cat. 15630080), 1X GlutaMAX supplement (Thermo Fisher Scientific, cat. 35050061), 0.1 mg/mL primocin (InvivoGen, cat. ant-pm-2), 10% defined fetal bovine serum, heat inactivated (HyClone Laboratories Inc., cat. SH30070.03HI), 50% L-WRN conditioned media (ATCC, cat. CRL-3276), 1.25 mM N-Acetyl-L-cysteine (Sigma-Aldrich, cat. A9165), 10 mM nicotinamide (Sigma-Aldrich, cat. N0636), 1X B-27 supplement (Thermo Fisher Scientific, cat. 17504044), 1X N-2 supplement (Thermo Fisher Scientific, cat. 17502048), 10 microM Y-27632 dihydrochloride (Tocris Bioscience, cat. 1254), and 50 ng/mL human EGF recombinant protein (Thermo Fisher Scientific, cat. PHG0311). The 485176-168-R4-J1-PDC line was cultured in Panc media, which includes all 6C/Colon 1B media components plus 100 ng/mL human FGF-10 (Thermo Fisher Scientific, cat. 100-26), 500 nM SB-431542 (Selleckchem, cat. S1067), and gastrin (Tocris, cat. 3006).
[…]
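Note: spheroids exposed to compounds for 7 days.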
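Throughout, for viability, T/C: 100% = DMSO vehicle control viability.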

| IC50 | Compound | viability, T/C (compound 0.0316 µM) | viability, T/C (compound 0.1 µM) | viability, T/C (compound 0.316 µM) | viability, T/C (compound 1 µM) | viability, T/C (compound 3.16 µM) | viability, T/C (compound 10 µM) |
| --- | --- | --- | --- | --- | --- | --- | --- |
| 478 nM and 552 nM and 475 nM | C#Cc1c(F)ccc2cc(O)cc(-c3ncc4c(N5CC6CCC(C5)N6)nc(OCC56CCCN5CC(F)C6)nc4c3F)c12 (stereo unspecified) | 91.1% and 86.6% and 83.5% | 72.5% and 68.7% and 74.1% | 55.5% and 61.2% and 55.2% | 41.4% and 38% and 36.8% | 29.1% and 29.3% and 26.5% | 24.5% and 6.82% and 10.6% |
| 660 nM and 789 nM and 669 nM | C=CCn1c(=O)c2cnc(Nc3ccc(N4CCN(C)CC4)cc3)nc2n1-c1cccc(C(C)(C)O)n1 | 101% and 105% (2×) | 80.9% and 102% and 89.4% | 76.6% and 92% and 76.5% | 35.9% (2×) and 39.2% | 18.3% and 21.7% and 21.2% | 23.2% and 23.1% and 21.7% |
| < 31.6 nM | CC(=O)O[C@H]1C(=O)[C@@]2(C)[C@H]([C@H](OC(=O)c3ccccc3)[C@]3(O)C[C@H](OC(=O)[C@H](O)[C@@H](NC(=O)c4ccccc4)c4ccccc4)C(C)=C1C3(C)C)[C@]1(OC(C)=O)CO[C@@H]1C[C@@H]2O | 50.5% and 44.8% and 33.4% | 32.6% and 33.4% and 25.7% | 32% and 29.3% and 21.5% | 29.8% and 26.7% and 22.8% | 29.6% and 24.3% and 23.2% | 29.6% (2×) and 24% |
| 1870 nM and 1890 nM and 1750 nM | CC(C)(O)C1CCC(Nc2ccc3ncc(-c4cccc(C(F)(F)F)c4)n3n2)CC1 (stereo unspecified) | 94.5% and 97.7% and 83.7% | 103% and 88.9% and 87.9% | 90% and 92.4% and 78.3% | 74.2% and 75.5% and 74.3% | 25.5% and 27.5% and 22.3% | 33.8% and 31.2% and 26.3% |
| > 10000 nM | CCCS(=O)(=O)Nc1ccc(F)c(C(=O)c2c[nH]c3ncc(-c4ccc(Cl)cc4)cc23)c1F | 93.6% and 96.9% and 102% | 104% and 92.1% and 101% | 105% and 114% and 98.3% | 113% and 97.5% and 123% | 96.5% and 102% and 108% | 51% and 50.6% and 74.3% |
| 138 nM and 241 nM and 128 nM | COc1cccc2c1C(=O)c1c(O)c3c(c(O)c1C2=O)CC(O)(C(=O)CO)CC3OC1CC(N)C(O)C(C)O1 (stereo unspecified) | 90.7% and 94.5% and 84.5% | 52% and 64.5% and 52.4% | 39.5% and 50.2% and 35.5% | 13.5% and 20% and 15% | 0.2% and 0.32% and 0.18% | 0.4% and 0.19% and 0.39% |
| > 10000 nM | COc1ncnc(C2CC2)c1-c1ncc2cnn(Cc3ccc(-c4nc(C(F)(F)F)cn4C(C)C)cc3)c2n1 | 94% and 84.8% and 93.3% | 89.3% and 100% and 93.7% | 85.2% and 92.9% and 94% | 100% and 95.7% and 106% | 91.3% and 98.7% and 97.9% | 76.1% and 90.1% and 79.6% |
| < 31.6 nM | Nc1ccn(C2OC(CO)C(O)C2(F)F)c(=O)n1 (stereo unspecified) | 24% and 35.9% and 25.5% | 30.8% and 38.8% and 28.2% | 39.4% and 47.6% and 37.4% | 37.8% and 48.4% and 37.6% | 35.4% and 45.9% and 35.1% | 31.4% (2×) and 44% |
